What is called pIC50 is the negative decadic logarithm of the IC50, by convention in mol/L.

The source of these data is ChEMBL document CHEMBL4270626, “Synthesis and antitumor activity of epothilone B” (Eur J Med Chem, 2018).

Assay [1] concerns KB-V1. The experiment in a line: Cytotoxicity against human KBV1 cells. In kind it is functional, cell-based.
The nature of assay [2]: Antiproliferative activity against human 8226/LR-5 cells assessed as inhibition of cell proliferation. The format is functional, cell-based.
Assay [3] can be described thus: Antiproliferative activity against human RPMI8226/MR20 cells assessed as inhibition of cell proliferation. In kind it is functional, cell-based. The settings on record: RPMI-8226.
In assay [4] the test system is KB 3-1. Description: Cytotoxicity against human KB3-1 cells. In kind it is functional, cell-based.
In assay [5] the test system is HCT-116. The experiment in a line: Antiproliferative activity against human HCT116 cells assessed as inhibition of cell proliferation. In kind it is functional, cell-based.
Assay [6] in a line: Inhibition of GFP-tagged alpha-tubulin (unknown origin) expressed in human MCF7 cells assessed as disruption of microtubule polymerization. In kind it is cell-based.
For assay [7], the target named is Tubulin. The experiment in a line: […] in human MCF7 cells assessed as induction of mitotic arrest. In kind it is cell-based.
Assay [8] in a line: Inhibition of paclitaxel binding to microtubule (unknown origin). On the set-up: species or system Homo sapiens.
In assay [9] the test system is U-266. The experiment in a line: Antiproliferative activity against human U266 cells assessed as inhibition of cell proliferation. In kind it is functional, cell-based.
Assay [10] relates to MM1.S. Description: Antiproliferative activity against human MM1S cells assessed as inhibition of cell proliferation. In kind it is functional, cell-based.
Assay [11] relates to HeLa. Description: Cytotoxicity against human HeLa cells. The format is functional, cell-based.
The subject of assay [12] is Hs-578T. The experiment in a line: Cytotoxicity against human Hs 578T cells. The format is functional, cell-based.
In assay [13] the test system is RPMI-8226. Description: Antiproliferative activity against human […] cells assessed as inhibition of cell proliferation. In kind it is functional, cell-based.

pIC50: −log10 of the molar value.

Regarding `C/C(=C\c1csc(C)n1)[C@@H]1C[C@@H]2O[C@]2(C)CCC[C@H](C)[C@H](O)[C@@H](C)C(=O)C(C)(C)[C@@H](O)CC(=O)O1` [PATUPILONE], the pIC50 was 7.04 to 8.52 in assay [1]; 8.00 to 9.00 in assay [2]; 8.00 to 9.00 in [3]; 7.04 to 8.52 in assay [4]; 9.10 in assay [5]; 8.46 in assay [6]. In addition, the pIC50 in [7] was 8.46; in [8], 8.48; in assay [9] it was 8.00 to 9.00; in [10], 8.00 to 9.00; in assay [11], 7.04 to 8.52; in [12] it was 7.04 to 8.52. Moreover, in assay [13], the pIC50 is 8.00 to 9.00.
